Results reported in ChEMBL document CHEMBL4024740, “Isocostunolide inhibited glioma stem cell by suppression proliferation and inducing caspase dependent apoptosis” (Bioorg Med Chem Lett, 2017).
Converted amounts (≈) assume the structure as drawn. The source made the active and inactive calls. No cut-off for these calls is given here.

What was measured:
[1] = Induction of apoptosis in human GSC3 cells assessed as viable cells at 2 ug/ml after 8 hrs by Annexin V-FITC/propidium iodide staining based flow cytometric method (reference value: 98.8%); type: functional; details: GSC-3, 8 h, read-out: Activity
GSC3 [2] = test: Cytotoxicity against human GSC3 cells assessed as suppression of DNA synthesis at 5 ug/ml after 8 hrs by BrdU/DAPI staining based immunofluorescence assay; type: functional, cell-based
[3] = Induction of apoptosis in human GSC18 cells assessed as late apoptotic cells at 2 ug/ml after 8 hrs by Annexin V-FITC/propidium iodide staining based flow cytometric method (reference value: 2.54%); type: functional
GSC18 [4] = test: Growth inhibition of human GSC18 cells at 10 ug/ml; type: functional, cell-based
[5] = Induction of apoptosis in human GSC18 cells assessed as late apoptotic cells at 1 ug/ml after 8 hrs by Annexin V-FITC/propidium iodide staining based flow cytometric method (reference value: 4.25%); type: functional
GSC18 [6] = test: Cytotoxicity against human GSC18 cells assessed as cell rounding at 5 ug/ml measured after 8 hrs; type: functional, cell-based
[7] = Induction of apoptosis in human GSC3 cells assessed as late apoptotic cells at 5 ug/ml after 8 hrs by Annexin V-FITC/propidium iodide staining based flow cytometric method (reference value: 0.603%); type: functional
[8] = Induction of apoptosis in human GSC3 cells assessed as late apoptotic cells at 5 ug/ml after 8 hrs by Annexin V-FITC/propidium iodide staining based flow cytometric method (reference value: 0.373%); type: functional
[9] = Cytotoxicity against human HAC cells after 72 hrs by MTS assay; type: cell-based
GSC3 [10] = test: Induction of apoptosis in human GSC3 cells assessed as increase in cleaved caspase-3 at 5 ug/ml after 8 hrs by DAPI staining based immunofluorescence assay; type: functional, cell-based
[11] = Induction of apoptosis in human GSC18 cells assessed as late apoptotic cells at 5 ug/ml after 8 hrs by Annexin V-FITC/propidium iodide staining based flow cytometric method (reference value: 2.54%); type: functional
GSC12 = test: Growth inhibition of human GSC12 cells at 10 ug/ml; type: functional, cell-based
GSC18 [12] = test: Cytotoxicity against human GSC18 cells assessed as cell shrinkage at 5 ug/ml measured after 8 hrs; type: functional, cell-based
GSC18 [13] = test: Induction of apoptosis in human GSC18 cells assessed as increase in cleaved caspase-3 at 5 ug/ml after 8 hrs by DAPI staining based immunofluorescence assay; type: functional, cell-based
[14] = Induction of apoptosis in human GSC3 cells assessed as late apoptotic cells at 2 ug/ml after 8 hrs by Annexin V-FITC/propidium iodide staining based flow cytometric method (reference value: 0.373%); type: functional
[15] = Cytotoxicity against human GSC18 cells after 72 hrs by MTS assay; type: functional, cell-based; details: GSC18, 72 h
GSC3 [16] = test: Cytotoxicity against human GSC3 cells assessed as cell detachment at 5 ug/ml measured after 8 hrs; type: functional, cell-based
[17] = Induction of apoptosis in human GSC3 cells assessed as early apoptotic cells at 1 ug/ml after 8 hrs by Annexin V-FITC/propidium iodide staining based flow cytometric method (reference value: 0.186%); type: functional
[18] = Induction of apoptosis in human GSC3 cells assessed as late apoptotic cells at 1 ug/ml after 8 hrs by Annexin V-FITC/propidium iodide staining based flow cytometric method (reference value: 0.603%); type: functional
GSC3 [19] = test: Inhibition of colony formation in human GSC3 cells assessed as reduction in numbers of clonal sphere at 5 ug/ml after 10 days by crystal violet staining based assay; type: functional, cell-based
GSC18 [20] = test: Inhibition of colony formation in human GSC18 cells assessed as reduction in numbers of clonal sphere at 5 ug/ml after 10 days by crystal violet staining based assay; type: functional, cell-based
[21] = Induction of apoptosis in human GSC18 cells assessed as viable cells at 2 ug/ml after 8 hrs by Annexin V-FITC/propidium iodide staining based flow cytometric method (reference value: 85.5%); type: functional; details: GSC18, 8 h, read-out: Activity
GSC18 [22] = test: Inhibition of colony formation in human GSC18 cells assessed as clonal sphere damage at 5 ug/ml after 10 days by crystal violet staining based assay; type: functional, cell-based
[23] = Induction of apoptosis in human GSC3 cells assessed as viable cells at 5 ug/ml after 8 hrs by Annexin V-FITC/propidium iodide staining based flow cytometric method (reference value: 98.8%); type: functional; details: GSC-3, 8 h, read-out: Activity
GSC3 [24] = test: Growth inhibition of human GSC3 cells at 10 ug/ml; type: functional, cell-based
GSC18 [25] = test: Cytotoxicity against human GSC18 cells assessed as cell detachment at 5 ug/ml measured after 8 hrs; type: functional, cell-based
GSC3 [26] = test: Inhibition of colony formation in human GSC3 cells assessed as clonal sphere damage at 5 ug/ml after 10 days by crystal violet staining based assay; type: functional, cell-based
[27] = Induction of apoptosis in human GSC18 cells assessed as early apoptotic cells at 2 ug/ml after 8 hrs by Annexin V-FITC/propidium iodide staining based flow cytometric method (reference value: 7.73%); type: functional
GSC3 [28] = test: Cytotoxicity against human GSC3 cells assessed as cell shrinkage at 5 ug/ml measured after 8 hrs; type: functional, cell-based
[29] = Induction of apoptosis in human GSC18 cells assessed as viable cells at 1 ug/ml after 8 hrs by Annexin V-FITC/propidium iodide staining based flow cytometric method (reference value: 85.5%); type: functional; details: GSC18, 8 h, read-out: Activity
[30] = Induction of apoptosis in human GSC18 cells assessed as viable cells at 5 ug/ml after 8 hrs by Annexin V-FITC/propidium iodide staining based flow cytometric method (reference value: 85.5%); type: functional; details: GSC18, 8 h, read-out: Activity
[31] = Induction of apoptosis in human GSC3 cells assessed as late apoptotic cells at 2 ug/ml after 8 hrs by Annexin V-FITC/propidium iodide staining based flow cytometric method (reference value: 0.603%); type: functional
[32] = Cytotoxicity against human GSC12 cells after 72 hrs by MTS assay; type: functional, cell-based; details: GSC12, 72 h
[33] = Induction of apoptosis in human GSC18 cells assessed as early apoptotic cells at 5 ug/ml after 8 hrs by Annexin V-FITC/propidium iodide staining based flow cytometric method (reference value: 7.73%); type: functional
[34] = Induction of apoptosis in human GSC3 cells assessed as viable cells at 1 ug/ml after 8 hrs by Annexin V-FITC/propidium iodide staining based flow cytometric method (reference value: 98.8%); type: functional; details: GSC-3, 8 h, read-out: Activity
[35] = Induction of apoptosis in human GSC3 cells assessed as late apoptotic cells at 1 ug/ml after 8 hrs by Annexin V-FITC/propidium iodide staining based flow cytometric method (reference value: 0.373%); type: functional
[36] = Induction of apoptosis in human GSC3 cells assessed as early apoptotic cells at 5 ug/ml after 8 hrs by Annexin V-FITC/propidium iodide staining based flow cytometric method (reference value: 0.186%); type: functional
[37] = Cytotoxicity against human GSC3 cells after 72 hrs by MTS assay; type: functional, cell-based; details: GSC-3, 72 h
[38] = Induction of apoptosis in human GSC18 cells assessed as late apoptotic cells at 2 ug/ml after 8 hrs by Annexin V-FITC/propidium iodide staining based flow cytometric method (reference value: 4.25%); type: functional
[39] = Induction of apoptosis in human GSC18 cells assessed as late apoptotic cells at 1 ug/ml after 8 hrs by Annexin V-FITC/propidium iodide staining based flow cytometric method (reference value: 2.54%); type: functional
[40] = Induction of apoptosis in human GSC18 cells assessed as late apoptotic cells at 5 ug/ml after 8 hrs by Annexin V-FITC/propidium iodide staining based flow cytometric method (reference value: 4.25%); type: functional
[41] = Induction of apoptosis in human GSC18 cells assessed as early apoptotic cells at 1 ug/ml after 8 hrs by Annexin V-FITC/propidium iodide staining based flow cytometric method (reference value: 7.73%); type: functional
GSC18 [42] = test: Cytotoxicity against human GSC18 cells assessed as suppression of DNA synthesis at 5 ug/ml after 8 hrs by BrdU/DAPI staining based immunofluorescence assay; type: functional, cell-based
HEK-293T = test: Cytotoxicity against human 293T cells after 72 hrs by MTS assay; type: cell-based
GSC3 [43] = test: Cytotoxicity against human GSC3 cells assessed as cell rounding at 5 ug/ml measured after 8 hrs; type: functional, cell-based
[44] = Induction of apoptosis in human GSC3 cells assessed as early apoptotic cells at 2 ug/ml after 8 hrs by Annexin V-FITC/propidium iodide staining based flow cytometric method (reference value: 0.186%); type: functional

**Q.** For `C=C1C(=O)O[C@@H]2/C=C(\C)CCC/C(C)=C/C[C@@H]12`, which viability at 2 µg/mL [1] is on record?
**A.** 91.4%

**Q.** What about the Activity (GSC3 [2]) of the same compound?
**A.** Active

**Q.** And the Activity [3]?
**A.** 17.1%

**Q.** And the “growth inhibition (GI)” value (GSC18 [4])?
**A.** Active

**Q.** What about the Activity [5] of the same compound?
**A.** 17.3%

**Q.** And the Activity (GSC18 [6])?
**A.** Active

**Q.** And the Activity [7]?
**A.** 54.3%

**Q.** And the Activity [8]?
**A.** 22.4%

**Q.** What about the IC50 [9] of the same compound?
**A.** 7.42 mg/L (≈ 31.9 µM)

**Q.** What about the Activity (GSC3 [10]) of the same compound?
**A.** Active

**Q.** What about the Activity [11] of the same compound?
**A.** 35.2%

**Q.** And the “growth inhibition (GI)” value (GSC12)?
**A.** Active

**Q.** What about the Activity (GSC18 [12]) of the same compound?
**A.** Active

**Q.** What about the Activity (GSC18 [13]) of the same compound?
**A.** Active

**Q.** And the Activity [14]?
**A.** 4%

**Q.** And the IC50 [15]?
**A.** 1.07 mg/L (≈ 4.61 µM)

**Q.** What about the Activity (GSC3 [16]) of the same compound?
**A.** Active

**Q.** And the Activity [17]?
**A.** 0.096%

**Q.** And the Activity [18]?
**A.** 0.942%

**Q.** What about the inhibition (GSC3 [19]) of the same compound?
**A.** Active

**Q.** What about the inhibition (GSC18 [20]) of the same compound?
**A.** Active

**Q.** What about the viability at 2 µg/mL [21] of the same compound?
**A.** 57.5%

**Q.** What about the inhibition (GSC18 [22]) of the same compound?
**A.** Active

**Q.** And the viability at 5 µg/mL [23]?
**A.** 19.2%

**Q.** What about the “growth inhibition (GI)” value (GSC3 [24]) of the same compound?
**A.** Active

**Q.** What about the Activity (GSC18 [25]) of the same compound?
**A.** Active

**Q.** What about the inhibition (GSC3 [26]) of the same compound?
**A.** Active

**Q.** And the Activity [27]?
**A.** 3.28%

**Q.** And the Activity (GSC3 [28])?
**A.** Active

**Q.** What about the viability at 1 µg/mL [29] of the same compound?
**A.** 51.2%

**Q.** And the viability at 5 µg/mL [30]?
**A.** 39.6%

**Q.** And the Activity [31]?
**A.** 3.53%

**Q.** And the IC50 [32]?
**A.** 2.61 mg/L (≈ 11.2 µM)

**Q.** And the Activity [33]?
**A.** 4.1%

**Q.** What about the viability at 1 µg/mL [34] of the same compound?
**A.** 94.7%

**Q.** And the Activity [35]?
**A.** 4.3%

**Q.** What about the Activity [36] of the same compound?
**A.** 3.98%

**Q.** What about the IC50 [37] of the same compound?
**A.** 2.8 mg/L (≈ 12.1 µM)

**Q.** And the Activity [38]?
**A.** 22.1%

**Q.** What about the Activity [39] of the same compound?
**A.** 30%

**Q.** And the Activity [40]?
**A.** 21.1%

**Q.** What about the Activity [41] of the same compound?
**A.** 1.54%

**Q.** What about the Activity (GSC18 [42]) of the same compound?
**A.** Active

**Q.** And the IC50 (HEK-293T)?
**A.** 7.61 mg/L (≈ 32.8 µM)

**Q.** What about the Activity (GSC3 [43]) of the same compound?
**A.** Active

**Q.** What about the Activity [44] of the same compound?
**A.** 1.06%
